The conditions of data set [1]: mouse, in vivo.
The test system of data set [2] is SK-BR-3 (human breast cancer) transplanted tumor. Put plainly: Combined administration with doxorubicin in SK-BR-3 transplanted mice. Format: in vivo, Balb/c mice. The settings on record: after second intravenous administration of doxorubicin.
Data set [3] has as its system CD8 T cells and NK cells in blood. Put plainly: Immune cell activity and weight recovery in doxorubicin-treated mice. It counts as in vivo, Balb/c mice. The following applies: DOX 10 mg/kg on day 1 and 5; oral administration for 14 days; flow cytometry.

In data set [1], fucoidan displayed a BASO of 1.5%, an EOS of 6.1%, an HCT of 39.8% and an HGB of 10.9 g/dL. In data set [1], this compound yielded an LYM of 14.3%, an MCHC of 12 g/dL, an MONO of 4.6% and an NEUT of 67.9%. Further, in data set [1], the PLT was 1242 ×10^3 cells/μL, the RBC is given as 9.14 ×10^6 cells/μL and the WBC is 18.41 ×10^3 cells/μL.

`COc1cccc2c1C(=O)c1c(O)c3c(c(O)c1C2=O)C[C@@](O)(C(=O)CO)C[C@@H]3O[C@H]1C[C@H](N)[C@H](O)[C@H](C)O1` [DOX, doxorubicin]: the body weight change entry in data set [2] is “rapid decrease in body weight”. Moreover, in data set [3], the “immune cells (CD8 T cell and NK cell) in blood” value was “immune cells decreased”. In data set [1], this compound showed a BASO of 3.2%, an EOS of 3%, an HCT of 52.6% and an HGB of 16.5 g/dL. In data set [1], this compound came in with an LYM of 53.7%, an MCHC of 15 g/dL, an MONO of 4.3% and an NEUT of 33.9%. Besides, in data set [1], the PLT was 1954 ×10^3 cells/μL, the RBC was 10.99 ×10^6 cells/μL and the WBC was 6.57 ×10^3 cells/μL.
